# Test results taken from ChEMBL document CHEMBL1126417, “Indazole as an indole bioisostere: 5-HT4 receptor antagonism” (Bioorg Med Chem Lett, 1992).
# Assays:
# [1] = molecular target: Serotonin 4 (5-HT4) receptor (Sus scrofa) (UniProt Q6Q253); assay: Evaluated for the 5-hydroxytryptamine 4 receptor antagonistic activity in piglet atrium model; assay type: functional, tissue-based; settings: Cardiac atrium
# [2] = molecular target: Serotonin 3 (5-HT3) receptor (Homo sapiens) (UniProt P46098+A5X5Y0+O95264+Q70Z44+Q8WXA8)
# Description: Evaluated for the 5-hydroxytryptamine 3 receptor antagonistic activity in Bezold-Jarisch model expressed as inhibition of the reflex bradycardia induced by an intravenous injection
# Serotonin 4 (5-HT4) receptor (Sus scrofa), sequence (Q6Q253 as listed by the source): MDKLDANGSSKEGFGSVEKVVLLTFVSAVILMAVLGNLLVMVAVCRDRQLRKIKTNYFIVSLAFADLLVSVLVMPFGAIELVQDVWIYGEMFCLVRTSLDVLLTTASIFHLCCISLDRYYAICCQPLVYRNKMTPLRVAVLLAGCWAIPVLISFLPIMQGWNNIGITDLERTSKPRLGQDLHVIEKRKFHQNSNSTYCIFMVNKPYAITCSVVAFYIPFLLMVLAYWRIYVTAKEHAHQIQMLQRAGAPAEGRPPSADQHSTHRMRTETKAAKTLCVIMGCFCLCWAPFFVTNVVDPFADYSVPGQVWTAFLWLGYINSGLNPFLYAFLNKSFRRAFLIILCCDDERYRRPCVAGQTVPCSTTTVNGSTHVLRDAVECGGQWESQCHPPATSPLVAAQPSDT
Structure (SMILES),-Log KB [1],ID50 [2]
CN1C2CCCC1CC(NC(=O)c1[nH]nc3ccccc13)C2 (stereo not given),5,1 µg/kg
CN1C2CCC1CC(OC(=O)c1[nH]nc3ccccc13)C2 (stereo not given),7.2,5 µg/kg
CN1C2CCC1CC(NC(=O)c1n[nH]c3ccccc13)C2 (stereo not given),6.8,1.5 µg/kg
CN1[C@@H]2CC[C@H]1C[C@H](NC(=O)c1nn(C)c3ccccc13)C2,6.5,
CN1C2CCC1CC(NC(=O)N1CC(C)(C)c3ccccc31)C2 (stereo not given),4.9,
CN1[C@@H]2CC[C@H]1C[C@@H](OC(=O)c1c[nH]c3ccccc13)C2,6.9,1.4 µg/kg
